Measurements from patent US10258598B2, “Compounds for use in the prevention or treatment of cancer” ([…], priority 2014, dated 2019).

Columns and labels:
[1] = tested on: tetrabenazine-induced learning deficit; test: Shuttle box: conditioned avoidance reflex, antagonism of tetrabenazine-induced learning deficit; assay type: in vivo, rat; conditions: for very high dose range effective in antagonizing the tetrabenazine-induced learning deficit: attributed to inhibition of MAO-A; for optimal dose that exerted the specific enhancer effect: rats given 1 mg/kg tetrabenazine s.c. one hour prior to training
Experimental: In a modified version of the shuttle box the acquisition of a two-way conditioned avoidance reflex (CAR) was analyzed during 5 consecutive days. The rat was put in a box divided inside into two parts by a barrier with a small gate in the middle, and the animal was trained to cross the barrier under the influence of a conditioned stimulus (CS, light flash). […] One trial consisted of 10 s intertrial interval, followed by 20 s CS. The last 5 s of CS overlaped the 5 s US. At each learning session, the number of CARs, EFs and intersignal reactions (IRs) are automatically counted and evaluated by multi-way ANOVA.
Tetrabenazine-treatment (1 mg/kg s.c.) depletes at least 90% of norepinephrine and dopamine from their stores in the nerve terminals of the catecholaminergic neurons in the brain stem. Due to the weak performance of the catecholaminergic brain engine, the activation of the cortical neurons remains below the level required for the acquisition of a CAR. The learning deficit caused by tetrabenazine-treatment can be antagonized by the administration of a synthetic CAE substance or an A-type MAO inhibitor, whereas selective inhibition of B-type MAO or inhibition of the reuptake of catecholamines and/or serotonin is ineffective (Knoll et al., 1992).

[2] = tested on: male Wistar rats (Charles River); test: Longevity study: survival of rats under lifelong treatment; assay type: in vivo, rat; conditions: for month of age in which the first animal died: saline: 9th month; for lifespan versus saline-treated peers: both doses of each substance (FIGS. 5-8), Kaplan-Meier
Experimental: Experiments were carried out on male Wistar rats (Charles River) weighing 250-350 g received from the breeding colony of Semmelweis University. The animals were kept in a 12-hour light-dark cycle and under condition of controlled temperature (22±2° C.) and relative humidity (55±5%). Room temperature and relative humidity was checked daily. The rats were maintained on standard laboratory chow and tap water ad libitum. All procedures conformed to the European Convention for the protection of vertebrate animals used for experimental and other scientific purposes. The study was approved by the Animal Ethics Committee of Semmelweis University, Budapest (permission number: 1810/003/2004)
(§1) The longevity study was performed on 200 male rats received from the breeding colony of the Semmelweis University. The rats were born at the end of February of 2010. After 2-month acclimation period the rats were divided randomly into 5 even groups. The longevity study started at the beginning of May 2010. Animals were observed until their natural deaths. The data in this study represent the changes observed until Oct. 31, 2012, since in the saline-treated group the last animal died on Oct. 31, 2012. As will be shown later a few rats in the enhancer-treated groups were still alive on Nov. 1, 2012.
(§2) During the longevity study 5 rats were housed together in polycarbonate cages (height: 18 cm; wide: 42 cm; length: 44 cm) with a stainless steel on the top. Cage bedding was renewed 3 times a week (Monday, Wednesday and Friday). Bodyweight was measured once every month. The treatment started at the end of the second month of their age. […] To avoid the mixing of the groups and individuals, saline-treated rats were signed blue from 1 to 40; D-treated rats were signed green from 1 to 80 (1-40: rats treated with 0.1 mg/kg and 41-80: rats treated with 0.001 mg/kg); B-treated rats were signed black from 1 to 80 (1-40: rats treated with 0.05 mg/kg and 41-80: rats treated with 0.0001 mg/kg).
(§3) Significance in the performance between the groups in the shuttle box was evaluated by multi-factor analysis of variance (ANOVA). Significance regarding the span of time from tumor manifestation until death in rats and regarding aging related changes in bodyweight treated chronically with the enhancer substances was analyzed by One-way ANOVA. Statistical analysis of survival rate and tumor manifestation was performed by the Kaplan-Meier method.

fibromyxosarcoma = test: Longevity study: manifestation of subcutaneous fibromyxosarcoma (TMS effect); assay type: in vivo, Wistar rats; conditions: for month in which the last animal manifested the tumor / rats that manifested the tumor to the end of the 32nd month of age / rats that manifested the tumor when the group completed the 30th month of life / age at which the first animal manifested the tumor: N=40; for rats that manifested the tumor to the end of the 32nd month of age / rats that manifested the tumor when the group completed the 30th month of life: saline 20 rats; for age at which the first animal manifested the tumor: saline: 11th month; for span of time from tumor manifestation until death, versus saline: chronic treatment, One-way ANOVA (FIG. 13)
Experimental: as §1, §2
We carefully observed the appearance of the subcutaneous tumor and followed the development of the tumor until death. Histological analysis was performed post mortem on several rats taken from each group as examples.
The subcutaneous tumors developed in the rats were measured by the two largest diameters. After sacrificing the animals, the tumors were removed, photographs were taken. Tissues were fixed immediately after removal in 10% neutral formalin (in PBS, pH7.0) for 24 hours at room temperature, dehydrated and embedded in paraffin. 3-4 micrometer thick sections were cut and stained by hematoxylin and eosin (HE) as a routine.
as §3

lung carcinoma = test: Longevity study on FVB/N mice: spontaneous lung carcinoma at autopsy; assay type: in vivo; conditions: for Number of detected lung carcinoma: 18 months, saline 3 of 4
Experimental: Five groups of mice are treated daily from sexual maturity with two different doses of
(−)-deprenyl and (−)-BPAP, respectively.
Group 2: BPAP low dose: 0.0001 mg/kg (−)-BPAP
Group 3: BPAP high dose: 0.05 mg/kg (−)-BPAP
A total of 172 mice entered the experiments. Body weight is measured bimonthly.
For monitoring, we planned to sacrifice mice from each group at 6-month, 1-year, 1.5-year and 2-year time-points; the rest of the animals are kept until spontaneous death.
The results are shown in Table 4 and on FIGS. 19 and 20. Significance levels were calculated with two-sided Chi-square test.

CCCN[C@H](CCC)Cc1cc2ccccc2o1 [(−)-BPAP, (R)-1-(benzofuran-2-yl)-2-propylamino pentane]
very high dose range effective in antagonizing the tetrabenazine-induced learning deficit [1]: 2000 to 10000 µg/kg | optimal dose that exerted the specific enhancer effect [1]: 0.1 µg/kg | dose with the non-specific enhancer effect selected for the longevity study ([1]; rats given 1 mg/kg tetrabenazine s.c., for Deprenyl the less effective dose was chosen): 50 µg/kg | month of age in which the first animal died ([2]; 0.0001 mg/kg s.c. 3 times a week, N=40): 16 month | rats remaining alive to the end of the 32nd month of age ([2]; 0.0001 mg/kg, N=40, P<0.05 vs saline): one and One | month of age in which the first animal died ([2]; 0.05 mg/kg s.c. 3 times a week, N=40): 14 month | lifespan versus saline-treated peers [2]: significantly longer | tumor manifestation suppressing (TMS) effect versus saline (fibromyxosarcoma; 0.0001 mg/kg, Kaplan-Meier, P<0.001 (FIG. 12)): significantly decreased | tumor manifestation suppressing (TMS) effect versus saline (fibromyxosarcoma; 0.0001 mg/kg, Kaplan-Meier, P<0.001 (FIG. 12), listed as BPAP): suppressed the manifestation of the fibromyxosarcoma significantly | month in which the last animal manifested the tumor (fibromyxosarcoma; 0.0001 mg/kg): 31 month | rats that manifested the tumor to the end of the 32nd month of age (fibromyxosarcoma; 0.0001 mg/kg): 8 rats | rats that manifested the tumor when the group completed the 30th month of life (fibromyxosarcoma; 0.0001 mg/kg, P<0.001): 8 rats | age at which the first animal manifested the tumor (fibromyxosarcoma; 0.0001 mg/kg): 20 month | age at which the first animal manifested the tumor (fibromyxosarcoma; 0.0001 mg/kg, listed as BPAP): 25 month | tumor manifestation suppressing (TMS) effect versus saline (fibromyxosarcoma; 0.05 mg/kg, Kaplan-Meier, P<0.001 (FIG. 11)): significantly decreased | tumor manifestation suppressing (TMS) effect versus saline (fibromyxosarcoma; 0.05 mg/kg, Kaplan-Meier, P<0.001 (FIG. 11), listed as BPAP): suppressed the manifestation of the fibromyxosarcoma significantly | month in which the last animal manifested the tumor (fibromyxosarcoma; 0.05 mg/kg): 29 month | rats that manifested the tumor to the end of the 32nd month of age (fibromyxosarcoma; 0.05 mg/kg): 7 rats | rats that manifested the tumor when the group completed the 30th month of life (fibromyxosarcoma; 0.05 mg/kg, P<0.001): 7 rats | age at which the first animal manifested the tumor (fibromyxosarcoma; 0.05 mg/kg): 13 month | span of time from tumor manifestation until death, versus saline (fibromyxosarcoma): no significant difference | Number of detected lung carcinoma (lung carcinoma; 0.0001 mg/kg daily, 4 dissected mice): 0 | Number of detected lung carcinoma (lung carcinoma; 0.05 mg/kg daily, 4 dissected mice): 1 | manifestation of lung carcinoma (lung carcinoma; specific enhancer (extremely low) dose, 18 months daily treatment): completely prevented

C#CCN(C)[C@H](C)Cc1ccccc1 [(−)-Deprenyl, (R)—N-methyl-N-(1-phenylpropan-2-yl)prop-2-yn-1-amine]
form of the dose-effect relation of the enhancer effect ([1]; FIG. 3): bi-modal, bell-shaped dose-effect-relation | very high dose range effective in antagonizing the tetrabenazine-induced learning deficit [1]: 5000 to 10000 µg/kg | optimal dose that exerted the specific enhancer effect [1]: 1 µg/kg | month of age in which the first animal died ([2]; 0.001 mg/kg s.c. 3 times a week, N=40): 13 month | month of age in which the last animal died ([2]; 0.001 mg/kg, N=40): 32 month | rats remaining alive to the end of the 32nd month of age ([2]; 0.001 mg/kg, N=40, P>0.05 vs saline): none | month of age in which the first animal died ([2]; 0.1 mg/kg s.c. 3 times a week from 2 months of age, N=40): 11 month | lifespan versus saline-treated peers [2]: did not prolong the lifespan of rats significantly | tumor manifestation suppressing (TMS) effect versus saline (fibromyxosarcoma; 0.001 mg/kg, Kaplan-Meier (FIG. 10)): not significant | month in which the last animal manifested the tumor (fibromyxosarcoma; 0.001 mg/kg): 29 month | rats that manifested the tumor to the end of the 32nd month of age (fibromyxosarcoma; 0.001 mg/kg): 15 rats | age at which the first animal manifested the tumor (fibromyxosarcoma; 0.001 mg/kg): 12 month | age at which the first animal manifested the tumor (fibromyxosarcoma; 0.1 mg/kg s.c. 3 times a week): 16 month | tumor manifestation suppressing (TMS) effect versus saline (fibromyxosarcoma; 0.1 mg/kg, Kaplan-Meier, P<0.01 (FIG. 9), listed as (−)-deprenyl): significantly decreased | tumor manifestation suppressing (TMS) effect versus saline (fibromyxosarcoma; 0.1 mg/kg, Kaplan-Meier, P<0.01 (FIG. 9), listed as Deprenyl): suppressed the manifestation of the fibromyxosarcoma significantly | month in which the last animal manifested the tumor (fibromyxosarcoma; 0.1 mg/kg): 32 month | rats that manifested the tumor to the end of the 32nd month of age (fibromyxosarcoma; 0.1 mg/kg): 11 rats | rats that manifested the tumor when the group completed the 30th month of life (fibromyxosarcoma; 0.1 mg/kg, P<0.01): 11 rats | span of time from tumor manifestation until death, versus saline (fibromyxosarcoma): no significant difference | Number of detected lung carcinoma (lung carcinoma; 0.001 mg/kg daily, 2 dissected mice): 0 | Number of detected lung carcinoma (lung carcinoma; 0.1 mg/kg daily, 4 dissected mice): 1
